Measurements as given in the supplement of paper PMC10307832.

Legend:
Test in all cases: relative viability (nuclei count vs DMSO), 5 days (fraction); higher = more cells survive
VE-821 + Vorinostat = compound: CS(=O)(=O)c1ccc(-c2cnc(N)c(C(=O)Nc3ccccc3)n2)cc1 [VE-821] + O=C(CCCCCCC(=O)Nc1ccccc1)NO [Vorinostat] (partner 1 µM)
Method in brief: (§1)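 Relative viability divides the nuclei count in treated wells by that in vehicle wells. Lung cancer cell lines were seeded in 1536-well plates, dosed by pin tool the next day, and fixed and stained after 5 days in one step with final 0.05% Triton X-100, 1% formaldehyde and 1 ug/ml Hoechst. Dosing was a single drug or a fixed anchor-drug dose plus five library-drug doses (not always all listed) in √10 steps, and values are medians of duplicate plates imaged at 4×.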

Vismodegib + Vorinostat = compound: CS(=O)(=O)c1ccc(C(=O)Nc2ccc(Cl)c(-c3ccccn3)c2)c(Cl)c1 [Vismodegib] + O=C(CCCCCCC(=O)Nc1ccccc1)NO [Vorinostat] (partner 1 µM)
Method in brief: as §1

VE-821 + Pemetrexed = compound: CS(=O)(=O)c1ccc(-c2cnc(N)c(C(=O)Nc3ccccc3)n2)cc1 [VE-821] + Nc1nc2[nH]cc(CCc3ccc(C(=O)N[C@@H](CCC(=O)O)C(=O)O)cc3)c2c(=O)[nH]1 [Pemetrexed] (partner 0.2 µM)
Method in brief: as §1

Ruxolitinib + Crizotinib = compound: N#CC[C@H](C1CCCC1)n1cc(-c2ncnc3[nH]ccc23)cn1 [Ruxolitinib] + C[C@@H](Oc1cc(-c2cnn(C3CCNCC3)c2)cnc1N)c1c(Cl)ccc(F)c1Cl [Crizotinib] (partner 1 µM)
Method in brief: as §1

UMC-11 showed a relative viability (VE-821 + Vorinostat; first compound 0.08 µM) of 0.335, a relative viability (VE-821 + Vorinostat; first compound 0.253 µM) of 0.373 and a relative viability (VE-821 + Vorinostat; first compound 0.8 µM) of 0.386. The relative viability (VE-821 + Vorinostat; first compound 2.53 µM) was 0.297, the relative viability (VE-821 + Vorinostat; first compound 8 µM) was 0.202 and the relative viability (Vismodegib + Vorinostat; first compound 0.08 µM) was 0.392. It also gave a relative viability (Vismodegib + Vorinostat; first compound 0.253 µM) of 0.373, a relative viability (Vismodegib + Vorinostat; first compound 0.8 µM) of 0.415 and a relative viability (Vismodegib + Vorinostat; first compound 2.53 µM) of 0.35. For the same cell line, the relative viability (Vismodegib + Vorinostat; first compound 8 µM) was 0.462, the relative viability (VE-821 + Pemetrexed; first compound 0.08 µM) was 0.818 and the relative viability (VE-821 + Pemetrexed; first compound 0.253 µM) was 0.718. The relative viability (VE-821 + Pemetrexed; first compound 0.8 µM) was 0.728, the relative viability (VE-821 + Pemetrexed; first compound 2.53 µM) was 0.513 and the relative viability (VE-821 + Pemetrexed; first compound 8 µM) was 0.266. For the same cell line, the relative viability (Ruxolitinib + Crizotinib; first compound 0.08 µM) was 0.622, the relative viability (Ruxolitinib + Crizotinib; first compound 0.253 µM) was 0.616 and the relative viability (Ruxolitinib + Crizotinib; first compound 0.8 µM) was 0.736. It also gave a relative viability (Ruxolitinib + Crizotinib; first compound 2.53 µM) of 0.736 and a relative viability (Ruxolitinib + Crizotinib; first compound 8 µM) of 0.668.
